Counter-ions that a name gives are not always drawn. Like-named read-outs stand apart in the source and are kept apart here.
Tests used:
[1] = test system: BRCA-2 deficient CAPAN-1 human pancreatic cancer cells; assay: MTT based cell viability assay: growth inhibition of BRCA-2 deficient CAPAN-1 cells; conditions: 240 h, compound alone, 10 day assay
Description: Determination of the cell growth inhibiting activity of 1-(3-(4-(pyrimidin-2-yl)piperazine-1-carbonyl)benzyl)quinazoline-2,4(1H,3H)-dione and analogs on BRCA-2 deficient CAPAN-1 pancreatic duck cancer cells using a MTT based cell viability assay
BRCA-deficient cancer cells are sensitive to PARP inhibition. In the presence of PARP inhibitors, BRCA-deficient cancer cells could not grow and eventually will lead to death of cells. BRCA-2 deficient CAPAN-1 human pancreatic cancer cells were used to test the growth inhibiting activity of substituted 1-(arylmethyl)quinazoline-2,4(1H,3H)-diones. Briefly, CAPAN-1 cells are grown and maintained in IMEM medium supplemented with 20% FBS. The assay takes 10 days to finish. On day 1, 6000 CAPAN-1 cells are seeded to each well of a 96-well plate. The cells are incubated at 37° C. in a cell culture incubator overnight. In the next day, serial dilutions of compounds to be tested and reference compound (AZD2281) were prepared with a 1:3 and 1:10 fashion in DMSO. Ten-fold compound solutions were made by mixing 10 μl DMSO serial dilution solutions with 90 μl fresh growth medium. The cell culture medium was removed and 180 μl fresh media with FBS and 20 μl of compound solutions were added to each well. The final concentration of DMSO was 1%. Cells were then returned to the CO2 cell culture incubator and incubated at 37° C. for two days (day 3 and day 4). On day 5, the same procedure as what was done on day 2 was repeated. Cell culture medium was removed and fresh medium containing serial dilutions of compounds or reference compounds were added. Cells were returned to the CO2 cell culture incubator and incubated for two more days. On day 8, same procedure was repeated again and fresh medium containing the testing compounds or reference compounds were added and incubated for an additional 2 days. On day 10, 20 μl of MTT reagent (5 mg/ml) was added to each well of the cell culture plate and incubated for 4 h. The cell culture media was removed and 100 μl DMSO was added to each well. The 96-well cell culture plates were shaked horizontally for 10 min and readed in a Varioskan Flash plate reader (Thermo Fisher Scientific) at 520 and 690 nm. The obtained 520 nm absorbance readings subtracting corresponding 690 nm reading were analyzed using a commercial graphic software (GraphPad Prism 5) and plotted against the Log scale of the compound concentrations.

[2] = test system: SW620 human colorectal cancer cells; assay: MTT based cell viability assay: potentiation of the growth inhibiting activity of MMS
[3] = test system: Human breast cancer cell line T47D; assay: Cell based caspase-3 activity assay: potentiation of MMS induced apoptosis; conditions: T47D cells, 11.1 μg/ml MMS, 24 hours, intracellular caspase-3 activity, read-out: EC50 (nM), potentiation of the apoptosis inducing activity of MMS
How it was run: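 T47D cells were exposed for 24 h to compound plus a minimally apoptotic MMS dose (medium containing 11.1 μg/ml MMS). Lysates were incubated 3 h at 37 °C with (Ac-DEVD)2-R110 caspase-3 substrate (20 μM in added buffer) and read at ex 496/em 520 nm. EC50 came from a sigmoidal fit of RFU versus log concentration.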

[4] = Homo sapiens, SW-620, 120 h, read-out: IC50 (nM), potentiation of the growth inhibiting activity of MMS, SW620 cells, 1.7 μg/ml MMS, 5 days (120 hours), MTT

SMILES	IC50 [1] [nM]	IC50 [2, 4] [nM]	EC50 ([3]; Homo sapiens, T47D, 24 h) [nM]	IC50 ([2]; read-out: IC50 (nM), potentiation of the growth inhibiting activity of MMS, SW620 cells, 1.7 μg/ml MMS, 5 days (120 hours), MTT, hydrochloride) [nM]	EC50 ([3]; hydrochloride) [nM]
O=C(c1cccs1)N1CCN(C(=O)c2cc(Cn3c(=O)[nH]c(=O)c4c(F)cccc43)ccc2F)CC1 [Example 136, 5-Fluoro-1-(4-fluoro-3-(4-(thiophene-2-carbonyl)piperazine-1-carbonyl)benzyl)quinazoline-2,4(1H,3H)-dione]	40	7.1	3.2		
O=C(c1cccc(Cn2c(=O)[nH]c(=O)c3ccccc32)c1)N1CCN(C(=O)C2CCC2)CC1 [Example 30, 1-(3-(4-(Cyclobutylcarbonyl)piperazine-1-carbonyl)benzyl)quinazoline-2,4(1H,3H)-dione]	1780	119	39		
O=C(c1cc(Cn2c(=O)[nH]c(=O)c3cc(F)ccc32)ccc1F)N1CCN(c2ccccn2)CC1 [Example 145, 6-Fluoro-1-(4-fluoro-3-(4-(pyridin-2-yl)piperazine-1-carbonyl)benzyl)quinazoline-2,4(1H,3H)-dione]	146	12	6.5		
O=C(c1cc(Cn2c(=O)[nH]c(=O)c3ccccc32)ccc1F)N1CCN(C(=O)C2CC2)CC1 [Example 40, 1-(3-(4-(Cyclopropylcarbonyl)piperazine-1-carbonyl)-4-fluorobenzyl)quinazoline-2,4(1H,3H)-dione]	1740	182	29		
O=C(c1cc(Cn2c(=O)[nH]c(=O)c3ccccc32)ccc1F)N1CCN(c2ccccn2)CC1 [Example 24, 1-(4-Fluoro-3-(4-(pyridin-2-yl)piperazine-1-carbonyl)benzyl)quinazoline-2,4(1H,3H)-dione]	735	26	20		
O=C(c1cccc(Cn2c(=O)[nH]c(=O)c3ccccc32)c1)N1CCN(C(=O)C2CC2)CC1 [Example 15, 1-(3-(4-(Cyclopropylcarbonyl)piperazine-1-carbonyl)benzyl)quinazoline-2,4(1H,3H)-dione]	> 10000	666	803		
O=C(c1cc(Cn2c(=O)[nH]c(=O)c3ccccc32)ccc1F)N1CCN(C(=O)C2CCCC2)CC1 [Example 23, 1-(3-(4-(Cyclopentylcarbonyl)piperazine-1-carbonyl)-4-fluorobenzyl)quinazoline-2,4(1H,3H)-dione]	160	8.2	4		
O=C(c1ccccc1)N1CCN(C(=O)c2cc(Cn3c(=O)[nH]c(=O)c4ccccc43)ccc2F)CC1 [Example 45, 1-(3-(4-Benzoylpiperazine-1-carbonyl)-4-fluorobenzyl)quinazoline-2,4(1H,3H)-dione]	668	34	11		
O=C(c1ccc(F)c(Cn2c(=O)[nH]c(=O)c3cc(F)ccc32)c1)N1CCN(C(=O)C2CCCCC2)CC1 [Example 152, 1-(3-(4-(Cyclohexylcarbonyl)piperazine-1-carbonyl)-6-fluorobenzyl)-6-fluoroquinazoline-2,4(1H,3H)-dione]	121	13	5.1		
O=C(c1cc(Cn2c(=O)[nH]c(=O)c3c(F)cccc32)ccc1F)N1CCN(CC2CCCCC2)CC1 [Example 217, 1-(3-(4-(Cyclohexylmethyl)piperazine-1-carbonyl)-4-fluorobenzyl)-5-fluoroquinazoline-2,4(1H,3H)-dione]	460	2.5	19		
O=C(c1cccc(Cn2c(=O)[nH]c(=O)c3cc(F)ccc32)c1)N1CCN(C(=O)C2CCCC2)CC1 [Example 143, 1-(3-(4-(Cyclopentylcarbonyl)piperazine-1-carbonyl)benzyl)-6-fluoroquinazoline-2,4(1H,3H)-dione]	73	15	6		
O=C(c1cccc(Cn2c(=O)[nH]c(=O)c3cc(F)ccc32)c1)N1CCN(C(=O)C2CCCCC2)CC1 [Example 142, 1-(3-(4-(Cyclohexylcarbonyl)piperazine-1-carbonyl)benzyl)-6-fluoroquinazoline-2,4(1H,3H)-dione]	223	22	3.8		
O=C(c1ccc(F)c(Cn2c(=O)[nH]c(=O)c3ccccc32)c1)N1CCN(C(=O)C2CCCCC2)CC1 [Example 49, 1-(3-(4-(Cyclohexylcarbonyl)piperazine-1-carbonyl)-6-fluorobenzyl)quinazoline-2,4(1H,3H)-dione]	421	32	10		
O=C(c1cccs1)N1CCN(C(=O)c2cc(Cn3c(=O)[nH]c(=O)c4ccccc43)ccc2F)CC1 [Example 46, 1-(4-Fluoro-3-(4-(thiophene-2-carbonyl)piperazine-1-carbonyl)benzyl)quinazoline-2,4(1H,3H)-dione]	446	21	6.6		
O=C(c1cc(Cn2c(=O)[nH]c(=O)c3c(Cl)cccc32)ccc1F)N1CCN(c2ncccn2)CC1 [Example 103, 5-Chloro-1-(4-fluoro-3-(4-(pyrimidin-2-yl)piperazine-1-carbonyl)benzyl)quinazoline-2,4(1H,3H)-dione]	665	45	29		
O=C(c1cc(Cn2c(=O)[nH]c(=O)c3cc(F)ccc32)ccc1F)N1CCN(c2nccs2)CC1 [Example 188, 6-Fluoro-1-(4-fluoro-3-(4-(thiazol-2-yl)piperazine-1-carbonyl)benzyl)quinazoline-2,4(1H,3H)-dione]	472	7.8			
O=C(c1cc(F)cc(Cn2c(=O)[nH]c(=O)c3c(F)cccc32)c1)N1CCN(c2ncccn2)CC1 [Example 176, 5-Fluoro-1-(5-fluoro-3-(4-(pyrimidin-2-yl)piperazine-1-carbonyl)benzyl)quinazoline-2,4(1H,3H)-dione]	187	15	10		
Cc1ccc2c(c1)c(=O)[nH]c(=O)n2Cc1cccc(C(=O)N2CCN(c3ncccn3)CC2)c1 [Example 81, 6-Methyl-1-(3-(4-(pyrimidin-2-yl)piperazine-1-carbonyl)benzyl)quinazoline-2,4(1H,3H)-dione]	421	99	63		
O=C(c1ccc(F)c(Cn2c(=O)[nH]c(=O)c3c(F)cccc32)c1)N1CCN(c2ccccn2)CC1 [Example 155, 5-Fluoro-1-(6-fluoro-3-(4-(pyridin-2-yl)piperazine-1-carbonyl)benzyl)quinazoline-2,4(1H,3H)-dione]	142	23	12		
O=C(c1cc(Cn2c(=O)[nH]c(=O)c3ccccc32)ccc1F)N1CCN(c2nccs2)CC1 [Example 190, 1-(4-Fluoro-3-(4-(thiazol-2-yl)piperazine-1-carbonyl)benzyl)quinazoline-2,4(1H,3H)-dione]	1380	21			
O=C(c1cc(Cn2c(=O)[nH]c(=O)c3ccccc32)ccc1F)N1CCN(c2ncccn2)CC1 [Example 192, 1-(4-Fluoro-3-(4-(pyrimidin-2-yl)piperazine-1-carbonyl)benzyl)quinazoline-2,4(1H,3H)-dione hydrochloride]				79	3.1
O=C(c1ccc(F)c(Cn2c(=O)[nH]c(=O)c3cc(F)ccc32)c1)N1CCN(C(=O)c2cccs2)CC1 [Example 151, 6-Fluoro-1-(6-fluoro-3-(4-(thiophene-2-carbonyl)piperazine-1-carbonyl)benzyl)quinazoline-2,4(1H,3H)-dione]		18	5.2		
O=C(c1cccc(Cn2c(=O)[nH]c(=O)c3ccc(C(F)(F)F)cc32)c1)N1CCN(c2ncccn2)CC1 [Example 206, 1-(3-(4-(Pyrimidin-2-yl)piperazine-1-carbonyl)benzyl)-7-(trifluoromethyl)quinazoline-2,4(1H,3H)-dione]		> 10000	> 10000		
